Active and inactive are the calls of the source.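 How the source made its calls: active means at least one rat sex group has a carcinogenic potency value and tumor site recorded; inconclusive means only rat studies were judged inadequate by the national testing program; inactive means no potency or tumor site, with negative rat experiments.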
Tested on: rat chronic carcinogenicity bioassay, TD50
Test: DSSTox (CPDBAS) Carcinogenic Potency Database Summary Rat Bioassay Results
Conditions: for outcome: TD50_Rat_Note: no positive results; for Potency: stronger effect = lower value
Summary of the method: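 The activity score maps log10(1/TD50_Rat_mmol) linearly onto 1–100; actives without a computed TD50, such as mixtures, receive 50. Source data are chronic rat carcinogenicity tests, using the most positive experiment for each sex.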

[1] = TargetSites_Rat_Female: no positive results
[2] = TargetSites_Rat_Female: mammary gland
[3] = TD50_Rat_Note: TD50 is harmonic mean of more than one positive test, TargetSites_Rat_Female: liver

Structure (SMILES): CC(C)C(C(=O)OC(C#N)c1cccc(Oc2ccccc2)c1)c1ccc(Cl)cc1 (centres undefined)
- outcome [1]: inactive; no positive results

Structure (SMILES): CCN(C=O)CC
- outcome: inactive; no positive results

Structure (SMILES): Clc1ccccc1Cl
- outcome [1]: inactive; no positive results

Structure (SMILES): C=CCN(CC(C)=O)N=O
- Potency (TargetSites_Rat_Female: esophagus, liver): 0.335 mg/kg/day

Structure (SMILES): CC1CN(N=O)C(=O)NC1=O (centres undefined)
- outcome [1]: inactive; no positive results

Structure (SMILES): NN
- Potency (TD50_Rat_Note: TD50 is harmonic mean of more than one positive test, greater than ten-fold variation among TD50 values for positive res, TargetSites_Rat_Female: liver, lung, nasal cavity): 0.613 mg/kg/day

Structure (SMILES): C[C@H]1C(=O)O[C@@H]2CCN3CC=C(COC(=O)[C@](C)(O)[C@]1(C)O)[C@H]23
- Potency (TD50_Rat_Note: TD50 is harmonic mean of more than one positive test): 0.94 mg/kg/day

Structure (SMILES): O=c1[nH]nc(-c2ccc([N+](=O)[O-])o2)o1
- Potency (TargetSites_Rat_Female: all tumor bearing animals): 8.61 mg/kg/day

Structure (SMILES): CC(=O)Nc1nc(NC(C)=O)nc(-c2ccc([N+](=O)[O-])o2)n1
- Potency [2]: 14.1 mg/kg/day

Structure (SMILES): O=NN1CCC(=O)NC1=O
- Potency [3]: 0.0983 mg/kg/day

Structure (SMILES): Nc1cc(S(=O)(=O)O)cc2cc(S(=O)(=O)O)c(N=Nc3ccc(-c4ccc(N=Nc5c(S(=O)(=O)O)cc6cc(S(=O)(=O)O)cc(N)c6c5O)cc4)cc3)c(O)c12
- Potency [3]: 1.73 mg/kg/day

Structure (SMILES): O=P(OC(CCl)CCl)(OC(CCl)CCl)OC(CCl)CCl
- Potency (TD50_Rat_Note: TD50 is harmonic mean of more than one positive test, TargetSites_Rat_Female: kidney, liver): 46.4 mg/kg/day

Structure (SMILES): Nc1nc(-c2ccc([N+](=O)[O-])o2)cs1
- Potency (TargetSites_Rat_Female: stomach, urinary bladder): 5.85 mg/kg/day

Structure (SMILES): CCN=c1cc2oc3cc(NCC)c(C)cc3c(-c3ccccc3C(=O)OCC)c-2cc1C
- outcome [1]: inactive; no positive results

Structure (SMILES): Cc1cc(C(C)(C)C)c(O)c(C(C)(C)C)c1
- outcome [1]: inactive; no positive results

Structure (SMILES): CCC1(c2ccccc2)C(=O)N=C(O)NC1=O (centres undefined)
- Potency [3]: 86 mg/kg/day

Structure (SMILES): O=S(=O)(O)c1ccc(N=Nc2cc(S(=O)(=O)O)c3ccccc3c2O)c2ccccc12
- outcome [1]: inactive; no positive results

Structure (SMILES): CNc1ccc(N(CCO)CCO)cc1[N+](=O)[O-]
- Potency (TargetSites_Rat_Female: lung): 702 mg/kg/day

Structure (SMILES): Oc1c(Cl)cc(Cl)c(Cl)c1Cc1c(O)c(Cl)cc(Cl)c1Cl
- outcome [1]: inactive; no positive results

Structure (SMILES): ClC1(Cl)C2(Cl)C3C4(Cl)C1(Cl)C1(Cl)C4(Cl)C(Cl)(Cl)C3(Cl)C21Cl (centres undefined)
- Potency: 1.46 mg/kg/day

Structure (SMILES): C[C@H]1CCCC(=O)CCC/C=C/c2cc(O)cc(O)c2C(=O)O1
- outcome [1]: inactive; no positive results

Structure (SMILES): O=S1(=O)CC=CC1
- outcome [1]: inactive; no positive results

Structure (SMILES): CC1CC(=O)O1 (centres undefined)
- Potency (TargetSites_Rat_Female: stomach): 13.8 mg/kg/day

Structure (SMILES): Nc1nc(N)c2nc(-c3ccccc3)c(N)nc2n1
- outcome [1]: inactive; no positive results

Structure (SMILES): C=C(C)C
- Potency [1]: 3550 mg/kg/day

Structure (SMILES): CNCCC(Oc1ccc(C(F)(F)F)cc1)c1ccccc1 (centres undefined)
- outcome [1]: inactive; no positive results

Structure (SMILES): CC(O)COC(C)(C)C (centres undefined)
- outcome [1]: inactive; no positive results

Structure (SMILES): CC1=C(/C=C/C(C)=C/C=C/C(C)=C/C=C/C=C(C)/C=C/C=C(C)/C=C/C2=C(C)CCCC2(C)C)C(C)(C)CCC1
- outcome: inactive; no positive results

Structure (SMILES): CC(C)(C)NCC(O)c1cc(O)cc(O)c1 (centres undefined)
- Potency (TargetSites_Rat_Female: mesovarium): 410 mg/kg/day

Structure (SMILES): O=c1c(O)c(-c2ccc(O)cc2)oc2cc(O)cc(O)c12
- outcome [1]: inactive; no positive results

Structure (SMILES): CN(N=O)C(=O)c1ccccc1C(=O)N(C)N=O
- outcome: inactive; no positive results

Structure (SMILES): O=[N+]([O-])OCC(CO[N+](=O)[O-])O[N+](=O)[O-]
- Potency [3]: 183 mg/kg/day

Structure (SMILES): O=C(OOC(=O)c1ccccc1)c1ccccc1
- outcome (TargetSites_Rat_BothSexes: no positive results): inactive

Structure (SMILES): Cc1ccc2ncccc2c1
- outcome [1]: inactive; no positive results

Structure (SMILES): O=NN1CCCN(N=O)C1
- Potency (TD50_Rat_Note: positive test results only by intraperitoneal or intravenous injection): 0.166 mg/kg/day

Structure (SMILES): O=C1CCO1
- Potency (TD50_Rat_Note: TD50 is harmonic mean of more than one positive test, TargetSites_Rat_Female: stomach): 1.46 mg/kg/day

Structure (SMILES): ClC#CCl
- Potency (TD50_Rat_Note: TD50 is harmonic mean of more than one positive test, TargetSites_Rat_Female: hematopoietic system, kidney, liver): 3.58 mg/kg/day

Structure (SMILES): CCNC(=O)Nc1ncc([N+](=O)[O-])s1
- Potency [2]: 131 mg/kg/day

Structure (SMILES): C=CCOc1ccccc1OCC(O)CNC(C)C (centres undefined)
- outcome [1]: inactive; no positive results

Structure (SMILES): O=[O+][O-]
- outcome [1]: inactive; no positive results

Structure (SMILES): COP(=O)(OC)OC=C(Cl)Cl
- Potency [1]: 4.16 mg/kg/day

Structure (SMILES): C[C@@H]1CCC[C@H](C)N1CCCC(O)(c1ccccc1)c1ccccn1 (some centres undefined)
- outcome [1]: inactive; no positive results

Structure (SMILES): C=C(C)[C@H]1CC=C(C)CC1
- Potency [1]: 204 mg/kg/day

Structure (SMILES): C=CC#N
- Potency (TD50_Rat_Note: TD50 is harmonic mean of more than one positive test, greater than ten-fold variation among TD50 values for positive res, TargetSites_Rat_Female: ear Zymbals gland, mammary gland, nasal cavity, nervous system, oral cavity, small intestine, stomach): 16.9 mg/kg/day

Structure (SMILES): CN(N=O)c1ccncc1
- outcome [1]: inactive

Structure (SMILES): CC(=O)Nc1cccc2c1Cc1ccccc1-2
- outcome [1]: inactive

Structure (SMILES): Nc1c(Br)cc(Br)c2c1C(=O)c1ccccc1C2=O
- Potency (TD50_Rat_Note: TD50 is harmonic mean of more than one positive test, TargetSites_Rat_Female: kidney, large intestine, liver, urinary bladder): 46 mg/kg/day

Structure (SMILES): CC1(C)C(=O)NC(=O)NC1=O
- outcome: inactive; no positive results

Structure (SMILES): FCC(F)(F)F
- Potency [1]: 29900 mg/kg/day
